Measurements from patent EP0255299A2, “Glycopeptide antibiotics” (SMITHKLINE BECKMAN CORPORATION, priority 1986, dated 1988).
In brackets after ≈: the same amount, converted by molar mass. Like-named read-outs stand apart in the source and are kept apart here. One block for each compound: values may come before it.

Assays:
[1] = system: S. faecalis (strain 9, Table 2); test: mouse protection assay, i.p. infection with S. faecalis, single s.c. dose; format: in vivo; details: mice infected with 3.17 LD50's, dosed once subcutaneously one hour after infection
Protocol: (§1) The in vivo activity of the CWI-785 complex and its components and hydrolysis products was confirmed by administering selected CWI-785 antibiotics to mice infected with various gram-positive pathogens. In one representative assay, in which mice infected intraperitoneally with 46.8 LD ₅₀ʹs of S. aureus (strain 1, Tables 1 and 2) were dosed once, subcutaneously one hour after infection, the following ED₅₀ʹs (mg/kg) (the ED₅₀ gives the amount of antibiotic necessary for 50% survival) were observed: CWI-785B: 2.4, CWI-785C: 3.1, CWI-785: 3.8, HPB3: 0.9, vancomycin: 0.7. In a second representative assay carried out as above except that mice were infected with 3.17 LD₅₀ʹs of S. faecalis (strain 9, Table 2), the following ED₅₀ʹs were observed: HPB3 hydrochloride: 1.6, HPB4 hydrochloride: 1.6, vancomycin: 2.2, teicoplanin: 1.3.

[2] = system: S. aureus (strain 1, Tables 1 and 2); test: mouse protection assay, i.p. infection with S. aureus, single s.c. dose; format: in vivo; details: mice infected intraperitoneally with 46.8 LD50's, dosed once subcutaneously one hour after infection, 50% survival
Protocol: as §1

physchem = format: physicochemical
Text: The invention includes within its scope pharmaceutical compositions containing at least one of the above-mentioned antibiotic compounds and a pharmaceutically acceptable carrier. The compositions may also contain other active antibacterial agents. The compositions may be made up in any pharmaceutical form appropriate for the route of administration in question. Such compositions are exemplified by solid compositions for oral administration, such as tablets, capsules, pills, powders and granules; liquid compositions for oral administration such as solutions, suspensions, syrups and elixirs; preparations for parenteral administration such as sterile solutions, suspensions or emulsions; and preparations for topical administration such as gels, creams, ointments or salves. […] In 40% prophylene glycol in water (V/V), the solubility of HPB4 free base is greater than about 200 mg/ml. […] The solubility of HPB4·K is about 300 mg/ml. The solubility of HPB4·2HCl is about 600 mg/ml.
The solubility of the potassium salt is about 300 mg/ml in water.

pH of aqueous solution = format: physicochemical; details: 100 mg/ml aqueous solution

Structure (SMILES): CNC(C(=O)NC1C(=O)NC(CC[S+](C)[O-])C(=O)NC2C(=O)NC3C(=O)NC(C(=O)NC(C(=O)O)c4cc(O)cc(O)c4-c4cc3ccc4O)C(OC3CC(N)C(O)C(C)O3)c3ccc(c(Cl)c3)Oc3cc2cc(c3O)Oc2ccc(cc2)C1O)c1ccc(O)cc1.Cl (centres unmarked) [HPB3 hydrochloride]
ED₅₀ [1]: 1.6 mg/kg

Structure (SMILES): CNC(C(=O)NC1C(=O)NC(CC[S+](C)[O-])C(=O)NC2C(=O)NC3C(=O)NC(C(=O)NC(C(=O)O)c4cc(O)cc(O)c4-c4cc3ccc4O)C(OC3CC(N)C(O)C(C)O3)c3ccc(c(Cl)c3)Oc3cc2cc(c3O)Oc2ccc(cc2)C1O)c1ccc(O)cc1 (centres unmarked) [HPB3]
ED₅₀ [2]: 0.9 mg/kg

Structure (SMILES): CNC(C(=O)NC1C(=O)NC(CCSC)C(=O)NC2C(=O)NC3C(=O)NC(C(=O)NC(C(=O)O)c4cc(O)cc(O)c4-c4cc3ccc4O)C(OC3CC(N)C(O)C(C)O3)c3ccc(c(Cl)c3)Oc3cc2cc(c3O)Oc2ccc(cc2)C1O)c1ccc(O)cc1.Cl (centres unmarked) [HPB4 hydrochloride]
ED₅₀ [1]: 1.6 mg/kg

solubility (physchem; 40% peg-400 in water, organic solvent or mixture, solubility): ~250 mg/mL (≈ 194 mM) | solubility (physchem; 40% propylene glycol in water, organic solvent or mixture, solubility): > 200 mg/mL
Structure (SMILES): CNC(C(=O)NC1C(=O)NC(CCSC)C(=O)NC2C(=O)NC3C(=O)NC(C(=O)NC(C(=O)O)c4cc(O)cc(O)c4-c4cc3ccc4O)C(O[C@H]3C[C@@H](N)[C@@H](O)[C@H](C)O3)c3ccc(c(Cl)c3)Oc3cc2cc(c3O)Oc2ccc(cc2)C1O)c1ccc(O)cc1 (some centres unmarked) [HPB4]

solubility (physchem): about 600 mg/ml
Structure (SMILES): CNC(C(=O)NC1C(=O)NC(CCSC)C(=O)NC2C(=O)NC3C(=O)NC(C(=O)NC(C(=O)O)c4cc(O)cc(O)c4-c4cc3ccc4O)C(O[C@H]3C[C@@H](N)[C@@H](O)[C@H](C)O3)c3ccc(c(Cl)c3)Oc3cc2cc(c3O)Oc2ccc(cc2)C1O)c1ccc(O)cc1 (some centres unmarked) [HPB4·2HCl]

solubility (physchem; solubility): ~300 mg/mL (≈ 232 mM) | solubility (physchem; water, solubility): ~300 mg/mL (≈ 232 mM) | pH (pH of aqueous solution): 9.29
Structure (SMILES): CNC(C(=O)NC1C(=O)NC(CCSC)C(=O)NC2C(=O)NC3C(=O)NC(C(=O)NC(C(=O)O)c4cc(O)cc(O)c4-c4cc3ccc4O)C(O[C@H]3C[C@@H](N)[C@@H](O)[C@H](C)O3)c3ccc(c(Cl)c3)Oc3cc2cc(c3O)Oc2ccc(cc2)C1O)c1ccc(O)cc1 (some centres unmarked) [HPB4·K]

Structure (SMILES): CN[C@H](CC(C)C)C(=O)N[C@H]1C(=O)N[C@@H](CC(N)=O)C(=O)N[C@H]2C(=O)N[C@H]3C(=O)N[C@H](C(=O)N[C@H](C(=O)O)c4cc(O)cc(O)c4-c4cc3ccc4O)[C@H](O)c3ccc(c(Cl)c3)Oc3cc2cc(c3O[C@@H]2O[C@H](CO)[C@@H](O)[C@H](O)[C@H]2O[C@H]2C[C@](C)(N)[C@H](O)[C@H](C)O2)Oc2ccc(cc2Cl)[C@H]1O [vancomycin, reference compound]
ED50 ([2]; Staphylococcus aureus, sc, 1 h, read-out: ED₅₀): 0.7 mg/kg | ED50 ([1]; Enterococcus faecalis, sc, 1 h, read-out: ED₅₀): 2.2 mg/kg
